Experimental data taken from PubChem BioAssay (NCI).
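At the GI50, growth is halved. TGI: total growth inhibition.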

Key:
Assay in all cases: growth of human tumour cells (NCI), 384-well format
A498 renal = test system: A498 renal
A549 NSCLC = test system: A549 NSCLC
ACHN renal = test system: ACHN renal
BT-549 breast = test system: BT-549 breast
CAKI-1 renal = test system: CAKI-1 renal
COLO 205 colon = test system: COLO 205 colon
DU-145 prostate = test system: DU-145 prostate
EKVX NSCLC = test system: EKVX NSCLC
HCC-2998 colon = test system: HCC-2998 colon
HCT-116 colon = test system: HCT-116 colon
HCT-15 colon = test system: HCT-15 colon
HL-60(TB) leukemia = test system: HL-60(TB) leukemia
HOP-62 NSCLC = test system: HOP-62 NSCLC
HOP-92 NSCLC = test system: HOP-92 NSCLC
HS 578T breast = test system: HS 578T breast
HT29 colon = test system: HT29 colon
IGROV1 ovarian = test system: IGROV1 ovarian
KM12 colon = test system: KM12 colon
LOX IMVI melanoma = test system: LOX IMVI melanoma
M14 melanoma = test system: M14 melanoma
MALME-3M melanoma = test system: MALME-3M melanoma
MCF7 breast = test system: MCF7 breast
MDA-MB-231 breast = test system: MDA-MB-231 breast
MDA-MB-435 melanoma = test system: MDA-MB-435 melanoma
MDA-MB-468 breast = test system: MDA-MB-468 breast
MOLT-4 leukemia = test system: MOLT-4 leukemia
NCI-H226 lung = test system: NCI-H226 lung
NCI-H23 lung = test system: NCI-H23 lung
NCI-H322M lung = test system: NCI-H322M lung
NCI-H460 NSCLC = test system: NCI-H460 NSCLC
NCI-H522 lung = test system: NCI-H522 lung
NCI/ADR-RES ovarian = test system: NCI/ADR-RES ovarian
OVCAR-3 ovarian = test system: OVCAR-3 ovarian
OVCAR-4 ovarian = test system: OVCAR-4 ovarian
OVCAR-5 ovarian = test system: OVCAR-5 ovarian
OVCAR-8 ovarian = test system: OVCAR-8 ovarian
PC-3 prostate = test system: PC-3 prostate
RPMI-8226 leukemia = test system: RPMI-8226 leukemia
RXF 393 renal = test system: RXF 393 renal
SF-268 CNS = test system: SF-268 CNS
SF-295 CNS = test system: SF-295 CNS
SF-539 CNS = test system: SF-539 CNS
SK-MEL-28 melanoma = test system: SK-MEL-28 melanoma
SK-MEL-5 melanoma = test system: SK-MEL-5 melanoma
SK-OV-3 ovarian = test system: SK-OV-3 ovarian
SN12C renal = test system: SN12C renal
SNB-19 CNS = test system: SNB-19 CNS
SNB-75 CNS = test system: SNB-75 CNS
SR leukemia = test system: SR leukemia
T-47D breast = test system: T-47D breast
TK-10 renal = test system: TK-10 renal
U251 glioblastoma = test system: U251 glioblastoma
UACC-257 melanoma = test system: UACC-257 melanoma
UACC-62 melanoma = test system: UACC-62 melanoma

**Q.** What does the source list for `CCc1c[nH]c2ncnc(N3CC[C@](N)(CNC(=O)c4ccc(F)cc4F)C3)c12`?
**A.** GI50 (A498 renal): 0.136 µM; TGI (A498 renal): 2.09 µM; GI50 (A549 NSCLC): 10.8 µM; TGI (A549 NSCLC): > 100 µM; GI50 (ACHN renal): 4.85 µM; TGI (ACHN renal): > 100 µM; GI50 (BT-549 breast): 1.27 µM; TGI (BT-549 breast): 18.4 µM; GI50 (CAKI-1 renal): 5.18 µM; TGI (CAKI-1 renal): > 100 µM; GI50 (COLO 205 colon): 4.95 µM; TGI (COLO 205 colon): 28.6 µM; GI50 (DU-145 prostate): 6.69 µM; TGI (DU-145 prostate): > 100 µM; GI50 (EKVX NSCLC): 7.28 µM; TGI (EKVX NSCLC): 46.2 µM; GI50 (HCC-2998 colon): 3.13 µM; TGI (HCC-2998 colon): 88 µM; GI50 (HCT-116 colon): 6.21 µM; TGI (HCT-116 colon): > 100 µM; GI50 (HCT-15 colon): 5.47 µM; TGI (HCT-15 colon): > 100 µM; GI50 (HL-60(TB) leukemia): 10.4 µM; TGI (HL-60(TB) leukemia): 23.5 µM; GI50 (HOP-62 NSCLC): 6.34 µM; TGI (HOP-62 NSCLC): 82.3 µM; GI50 (HOP-92 NSCLC): 29.6 µM; TGI (HOP-92 NSCLC): > 100 µM; GI50 (HS 578T breast): 2.53 µM; TGI (HS 578T breast): 95.3 µM; GI50 (HT29 colon): 3.98 µM; TGI (HT29 colon): > 100 µM; GI50 (IGROV1 ovarian): 0.149 µM; TGI (IGROV1 ovarian): 1.71 µM; GI50 (KM12 colon): 0.959 µM; TGI (KM12 colon): > 100 µM; GI50 (LOX IMVI melanoma): 18.8 µM; TGI (LOX IMVI melanoma): > 100 µM; GI50 (M14 melanoma): 14.4 µM; TGI (M14 melanoma): > 100 µM; GI50 (MALME-3M melanoma): 8.62 µM; TGI (MALME-3M melanoma): 28.6 µM; GI50 (MCF7 breast): 0.375 µM; TGI (MCF7 breast): > 100 µM; GI50 (MDA-MB-231 breast): 68.8 µM; TGI (MDA-MB-231 breast): > 100 µM; GI50 (MDA-MB-435 melanoma): 15.4 µM; TGI (MDA-MB-435 melanoma): 73.4 µM; GI50 (MDA-MB-468 breast): 0.454 µM; TGI (MDA-MB-468 breast): 18.9 µM; GI50 (MOLT-4 leukemia): 0.237 µM; TGI (MOLT-4 leukemia): 1.76 µM; GI50 (NCI-H226 lung): 9.86 µM; TGI (NCI-H226 lung): > 100 µM; GI50 (NCI-H23 lung): 13.8 µM; TGI (NCI-H23 lung): > 100 µM; GI50 (NCI-H322M lung): 7.12 µM; TGI (NCI-H322M lung): > 100 µM; GI50 (NCI-H460 NSCLC): 0.536 µM; TGI (NCI-H460 NSCLC): 20.2 µM; GI50 (NCI-H522 lung): 11 µM; TGI (NCI-H522 lung): 35.8 µM; GI50 (NCI/ADR-RES ovarian): 12.3 µM; TGI (NCI/ADR-RES ovarian): > 100 µM; GI50 (OVCAR-3 ovarian): 8.07 µM; TGI (OVCAR-3 ovarian): > 100 µM; GI50 (OVCAR-4 ovarian): 32 µM; TGI (OVCAR-4 ovarian): > 100 µM; GI50 (OVCAR-5 ovarian): 4.4 µM; TGI (OVCAR-5 ovarian): 55.8 µM; GI50 (OVCAR-8 ovarian): 15 µM; TGI (OVCAR-8 ovarian): > 100 µM; GI50 (PC-3 prostate): 0.446 µM; TGI (PC-3 prostate): 21.8 µM; GI50 (RPMI-8226 leukemia): 3.38 µM; TGI (RPMI-8226 leukemia): 30.2 µM; GI50 (RXF 393 renal): 3.34 µM; TGI (RXF 393 renal): > 100 µM; GI50 (SF-268 CNS): > 100 µM; TGI (SF-268 CNS): > 100 µM; GI50 (SF-295 CNS): 1.95 µM; TGI (SF-295 CNS): > 100 µM; GI50 (SF-539 CNS): 0.442 µM; TGI (SF-539 CNS): > 100 µM; GI50 (SK-MEL-28 melanoma): 9.04 µM; TGI (SK-MEL-28 melanoma): > 100 µM; GI50 (SK-MEL-5 melanoma): 12.9 µM; TGI (SK-MEL-5 melanoma): 28.9 µM; GI50 (SK-OV-3 ovarian): 0.892 µM; TGI (SK-OV-3 ovarian): > 100 µM; GI50 (SN12C renal): 7.5 µM; TGI (SN12C renal): > 100 µM; GI50 (SNB-19 CNS): 3.49 µM; TGI (SNB-19 CNS): > 100 µM; GI50 (SNB-75 CNS): 0.626 µM; TGI (SNB-75 CNS): > 100 µM; GI50 (SR leukemia): 0.0603 µM; TGI (SR leukemia): 1.98 µM; GI50 (T-47D breast): 0.343 µM; TGI (T-47D breast): > 100 µM; GI50 (TK-10 renal): 1.26 µM; TGI (TK-10 renal): 45.3 µM; GI50 (U251 glioblastoma): 2.79 µM; TGI (U251 glioblastoma): > 100 µM; GI50 (UACC-257 melanoma): 7.7 µM; TGI (UACC-257 melanoma): 31.1 µM; GI50 (UACC-62 melanoma): 4.26 µM; TGI (UACC-62 melanoma): 25.1 µM
